In ChEMBL document CHEMBL4000244, “Probing A-form DNA: A fluorescent aminosugar probe and dual recognition by anthraquinone-neomycin conjugates” (Bioorg Med Chem, 2017):

Key:
[1] = Binding affinity to 5'-CGCCCCGG-3' DNA hairpin assessed as change in fluorescence intensity at 1 uM after 45 mins by fluorescence quenching analysis relative to control
[2] = Binding affinity to 5'-CGCCGCGG-3' DNA hairpin assessed as change in fluorescence intensity at 1 uM after 45 mins by fluorescence quenching analysis relative to control
[3] = Binding affinity to 5'-CCGCGCGC-3' DNA hairpin assessed as change in fluorescence intensity at 1 uM after 45 mins by fluorescence quenching analysis relative to control
[4] = Binding affinity to 5'-GCCCGGGC-3' DNA hairpin assessed as change in fluorescence intensity at 1 uM after 45 mins by fluorescence quenching analysis relative to control
[5] = Binding affinity to 5'-GCCCGCCC-3' DNA hairpin assessed as change in fluorescence intensity at 1 uM after 45 mins by fluorescence quenching analysis relative to control
[6] = Binding affinity to 5'-CGCCCGCG-3' DNA hairpin assessed as change in fluorescence intensity at 1 uM after 45 mins by fluorescence quenching analysis relative to control
[7] = Binding affinity to 5'-CCCGCCCG-3' DNA hairpin assessed as change in fluorescence intensity at 1 uM after 45 mins by fluorescence quenching analysis relative to control
[8] = Binding affinity to 5'-GGCGGCGG-3' DNA hairpin assessed as change in fluorescence intensity at 1 uM after 45 mins by fluorescence quenching analysis relative to control
[9] = Binding affinity to 5'-CGGGGCGC-3' DNA hairpin assessed as change in fluorescence intensity at 1 uM after 45 mins by fluorescence quenching analysis relative to control
[10] = Binding affinity to 5'-CGCCGGGC-3' DNA hairpin assessed as change in fluorescence intensity at 1 uM after 45 mins by fluorescence quenching analysis relative to control
[11] = Binding affinity to 5'-CCGGCGGC-3' DNA hairpin assessed as change in fluorescence intensity at 1 uM after 45 mins by fluorescence quenching analysis relative to control
[12] = Binding affinity to 5'-GCCGCCGC-3' DNA hairpin assessed as change in fluorescence intensity at 1 uM after 45 mins by fluorescence quenching analysis relative to control
[13] = Binding affinity to 5'-GCGGCCGC-3' DNA hairpin assessed as change in fluorescence intensity at 1 uM after 45 mins by fluorescence quenching analysis relative to control
[14] = Binding affinity to 5'-GGCCGGCC-3' DNA hairpin assessed as change in fluorescence intensity at 1 uM after 45 mins by fluorescence quenching analysis relative to control
[15] = Binding affinity to 5'-CCGGGCCG-3' DNA hairpin assessed as change in fluorescence intensity at 1 uM after 45 mins by fluorescence quenching analysis relative to control
[16] = Binding affinity to 5'-CCGCCCCG-3' DNA hairpin assessed as change in fluorescence intensity at 1 uM after 45 mins by fluorescence quenching analysis relative to control
[17] = Binding affinity to 5'-GGCCCGCC-3' DNA hairpin assessed as change in fluorescence intensity at 1 uM after 45 mins by fluorescence quenching analysis relative to control
[18] = Binding affinity to 5'-CCGGGCGC-3' DNA hairpin assessed as change in fluorescence intensity at 1 uM after 45 mins by fluorescence quenching analysis relative to control
[19] = Binding affinity to 5'-GGGCCCGC-3' DNA hairpin assessed as change in fluorescence intensity at 1 uM after 45 mins by fluorescence quenching analysis relative to control
[20] = Binding affinity to 5'-GCGCCGGC-3' DNA hairpin assessed as change in fluorescence intensity at 1 uM after 45 mins by fluorescence quenching analysis relative to control
[21] = Binding affinity to 5'-GGCCCGGC-3' DNA hairpin assessed as change in fluorescence intensity at 1 uM after 45 mins by fluorescence quenching analysis relative to control
[22] = Binding affinity to 5'-GCCGCCGG-3' DNA hairpin assessed as change in fluorescence intensity at 1 uM after 45 mins by fluorescence quenching analysis relative to control
[23] = Binding affinity to 5'-GCGGCCCG-3' DNA hairpin assessed as change in fluorescence intensity at 1 uM after 45 mins by fluorescence quenching analysis relative to control
[24] = Binding affinity to 5'-GCCGCGCC-3' DNA hairpin assessed as change in fluorescence intensity at 1 uM after 45 mins by fluorescence quenching analysis relative to control
[25] = Binding affinity to 5'-GCCGCGGC-3' DNA hairpin assessed as change in fluorescence intensity at 1 uM after 45 mins by fluorescence quenching analysis relative to control
[26] = Binding affinity to 5'-CGGGGGCG-3' DNA hairpin assessed as change in fluorescence intensity at 1 uM after 45 mins by fluorescence quenching analysis relative to control
[27] = Binding affinity to 5'-GCGCGGCC-3' DNA hairpin assessed as change in fluorescence intensity at 1 uM after 45 mins by fluorescence quenching analysis relative to control
[28] = Binding affinity to 5'-CCGGCGGG-3' DNA hairpin assessed as change in fluorescence intensity at 1 uM after 45 mins by fluorescence quenching analysis relative to control
[29] = Binding affinity to 5'-GGCGCGCC-3' DNA hairpin assessed as change in fluorescence intensity at 1 uM after 45 mins by fluorescence quenching analysis relative to control
[30] = Binding affinity to 5'-CCGCCGGC-3' DNA hairpin assessed as change in fluorescence intensity at 1 uM after 45 mins by fluorescence quenching analysis relative to control
[31] = Binding affinity to 5'-GGCCGCCG-3' DNA hairpin assessed as change in fluorescence intensity at 1 uM after 45 mins by fluorescence quenching analysis relative to control
[32] = Binding affinity to 5'-CCCCCGCC-3' DNA hairpin assessed as change in fluorescence intensity at 1 uM after 45 mins by fluorescence quenching analysis relative to control
[33] = Binding affinity to 5'-GCGGGGGC-3' DNA hairpin assessed as change in fluorescence intensity at 1 uM after 45 mins by fluorescence quenching analysis relative to control
[34] = Binding affinity to 5'-GGGCGGGC-3' DNA hairpin assessed as change in fluorescence intensity at 1 uM after 45 mins by fluorescence quenching analysis relative to control
[35] = Binding affinity to 5'-CCGCGGCG-3' DNA hairpin assessed as change in fluorescence intensity at 1 uM after 45 mins by fluorescence quenching analysis relative to control
[36] = Binding affinity to 5'-CGCCGGGG-3' DNA hairpin assessed as change in fluorescence intensity at 1 uM after 45 mins by fluorescence quenching analysis relative to control

Question: For NCC1O[C@H](O[C@H]2[C@@H](O)[C@H](O[C@@H]3[C@@H](O)[C@H](N)C[C@H](N)[C@H]3O[C@H]3O[C@H](CN)[C@@H](O)[C@H](O)[C@H]3N)O[C@@H]2CSCCNC(=O)CCSCC(=O)Nc2ccc(-c3c4ccc(=O)cc-4oc4cc(O)ccc34)c(C(=O)O)c2)[C@H](N)[C@@H](O)[C@@H]1O (stereo partly specified), which Activity [1] is on record?
Answer: The Activity was 41.9%.

Question: What about the Activity [2] of the same compound?
Answer: The Activity was 49.8%.

Question: What about the Activity [3] of the same compound?
Answer: The Activity was 57.5%.

Question: What about the Activity [4] of the same compound?
Answer: Its Activity is 41.1%.

Question: What about the Activity [5] of the same compound?
Answer: Its Activity is 47.8%.

Question: What about the Activity [6] of the same compound?
Answer: The Activity was 45.7%.

Question: What about the Activity [7] of the same compound?
Answer: Its Activity is 46.5%.

Question: What about the Activity [8] of the same compound?
Answer: Its Activity is 46.8%.

Question: And the Activity [9]?
Answer: Its Activity is 49%.

Question: What about the Activity [10] of the same compound?
Answer: Its Activity is 49.5%.

Question: What about the Activity [11] of the same compound?
Answer: The Activity was 47.4%.

Question: What about the Activity [12] of the same compound?
Answer: The Activity was 47.9%.

Question: What about the Activity [13] of the same compound?
Answer: Its Activity is 54.5%.

Question: And the Activity [14]?
Answer: The Activity was 45%.

Question: What about the Activity [15] of the same compound?
Answer: Its Activity is 40.2%.

Question: What about the Activity [16] of the same compound?
Answer: Its Activity is 49.3%.

Question: And the Activity [17]?
Answer: Its Activity is 31.2%.

Question: What about the Activity [18] of the same compound?
Answer: The Activity was 43.6%.

Question: What about the Activity [19] of the same compound?
Answer: The Activity was 30.6%.

Question: And the Activity [20]?
Answer: Its Activity is 55.1%.

Question: And the Activity [21]?
Answer: Its Activity is 37%.

Question: What about the Activity [22] of the same compound?
Answer: The Activity was 54.5%.

Question: What about the Activity [23] of the same compound?
Answer: The Activity was 52.5%.

Question: What about the Activity [24] of the same compound?
Answer: The Activity was 48.8%.

Question: What about the Activity [25] of the same compound?
Answer: Its Activity is 56.3%.

Question: What about the Activity [26] of the same compound?
Answer: The Activity was 41.1%.

Question: And the Activity [27]?
Answer: Its Activity is 50.4%.

Question: What about the Activity [28] of the same compound?
Answer: The Activity was 49.1%.

Question: What about the Activity [29] of the same compound?
Answer: Its Activity is 49%.

Question: And the Activity [30]?
Answer: The Activity was 52.6%.

Question: And the Activity [31]?
Answer: The Activity was 40.7%.

Question: And the Activity [32]?
Answer: Its Activity is 39.1%.

Question: And the Activity [33]?
Answer: Its Activity is 36.9%.

Question: What about the Activity [34] of the same compound?
Answer: The Activity was 44.1%.

Question: And the Activity [35]?
Answer: Its Activity is 50.1%.

Question: What about the Activity [36] of the same compound?
Answer: Its Activity is 47.3%.
